Measurements from PMC12106615, “Population pharmacokinetics of colistin sulfate in critically ill patients based on NONMEM” (Scientific Reports, 2025).
Where a name gives a salt, the structure may show the parent alone. Bridge positions count the residues as written; N and C are the ends. Square brackets hold non-standard residues; d marks the D form. Peptide text beside a SMILES is read from it. * marks the point of attachment. X1 = CC[C@H](C)CCCCC(=O)*; Dab = NCC[C@H](N)C(=O)O

Columns and labels:
[1] = previous studies; ref [14],[25]–[29]; cited from earlier work
Excerpt: Advanced age, the presence of multiple coexisting diseases, severe infections, low fluid replacement volume, and exposure to combination therapy with multiple drugs are recognized as risk factors for the development of acute kidney injury associated with colistin sulfate treatment. If colistin sulfate is the only factor considered, a Css level of ...

[2] = Population pharmacokinetic (PPK) model of colistin sulfate, NONMEM, two-compartment with first-order elimination; type: in vivo, human
Experimental: PPK analyses were performed using NONMEM version 7.5 (Icon Development Solutions, Ellicott City, MD, USA) and Pirana version 3.0. Ggplot2 version 3.5.1 package in R software (version 4.1.3, R-project.org) and Xpose version 4.3.2 packages were used to generate line plots and diagnostic plots, respectively.
One- and two-compartment structural models with first-order elimination characteristics of colistin sulfate were constructed using NONMEM software. Between-subject variability (BSV) was assessed using an exponential function. Within-subject variability (WSV) was assessed by additive, proportional, or combined (additive plus proportional) models, while model with the smallest variability represented the best ones. The base model was chosen according to diagnostic plots and goodness-of-fit criteria, including improvement of the OFV and precision and plausibility of parameter estimation. The factors influencing fixed effects were screened based on our previous study. Covariates were included in the base models in a stepwise manner, and testing was performed by using the following statistical criteria: ΔOFV > 3.84, P < 0.05. The covariate was considered to have a significant influence at ΔOFV > 3.84 and retained in the model or eliminated otherwise. All covariates with significant influence on models were then incorporated into the base models to construct full regression models. The full regression models were then subjected to reverse elimination. The included covariates were tested using stricter statistical criteria (ΔOFV > 6.63, P < 0.01), and covariates showing a small influence on the models were eliminated, thereby yielding the final model.
Goodness-of-fit plots, nonparametric bootstrap, and pc-VPC were used to evaluate the final model and parameter estimates. A nonparametric bootstrap procedure was utilized to assess the performance and stability of the final model. Random sampling and individual replacement were used to generate 1000 replicate datasets. The median and 95% CI values of the final model parameters obtained using bootstrap validation were then compared, and the predictive performance of the model was validated. The dataset was simulated 1000 times using the $SIMULATION block in NONMEM. The 90% CI values for the 5 th, 50 th, and 95 th percentiles of the simulated concentrations were calculated. The time curves were then plotted after the last dose and compared with the observed concentrations for prediction and variability correction using pc-VPC.

[3] = Clinical outcome (14-day mortality) of patients receiving intravenous colistin sulfate; type: in vivo, human; conditions: 178 critically ill patients, mostly combination therapy
Excerpt: (§1) The retrospective study subjects were patients admitted to Beijing Electric Power Hospital, Beijing, China, between May 2022 and May 2024. The study design conformed to the principles of the Declaration of Helsinki, and the study was approved by the Ethics Research Committee of Beijing Electric Power Hospital (approval no: n090327). Written informed consent was obtained from all patients or their legal representatives. In clinical practice, adult patients who had received intravenous colistin sulfate (Specification: 0.5 MU; Asia Pioneer Pharmaceutical Co., Ltd., Shanghai, China) with at least one measurement of colistin sulfate concentration were eligible for inclusion. The inclusion criteria were as follows: (1) age ≥ 18 years, (2) patients who had received colistin sulfate treatment, and (3) patients with at least one measurement of colistin sulfate concentration. The exclusion criteria were as follows: (1) patients who died within 24 h after receiving colistin sulfate treatment, (2) patients who received nebulized colistin sulfate and intrathecal colistin sulfate, and (3) patients who also received continuous renal replacement therapy during colistin sulfate treatment. […] The RIFLE criteria (risk, injury, failure, loss, and end-stage kidney disease), estimated with exclusion of the urinary output criterion, were used for detection and stratification of acute kidney injury.

[4] = 14 patients with successful treatment; ref Yu et al.[14]; cited from earlier work
Experimental: The steady-state plasma concentration (Css.avg) of these 129 patients was 0.93 ± 0.35 mg/L, which was inconsistent with the value (2.0–2.4 mg/L) jointly recommended by the multidisciplinary expert consensus[17] on the rational clinical use of colistin in China. This consensus considered that the in vitro antimicrobial activit ...

[5] = Nephrotoxicity / acute kidney injury by RIFLE criteria; type: in vivo, human; conditions: 178 critically ill patients, empirical intravenous colistin sulfate; RIFLE criteria without urinary output criterion
Excerpt: as §1

[6] = 178 critically ill patients, 364 concentrations, intravenous
[7] = nonparametric bootstrap, 1000 replicate datasets

Compound: CC[C@H](C)CCCCC(=O)N[C@@H](CCN)C(=O)N[C@H](C(=O)N[C@@H](CCN)C(=O)N[C@H]1CCNC(=O)[C@H]([C@@H](C)O)NC(=O)[C@H](CCN)NC(=O)[C@H](CCN)NC(=O)[C@H](CC(C)C)NC(=O)[C@@H](CC(C)C)NC(=O)[C@H](CCN)NC1=O)[C@@H](C)O [colistin sulfate] (X1-[Dab]T[Dab][Dab][Dab][dL]L[Dab][Dab]T; lactam 4-C)
- Incidence rate of nephrotoxicity induced by colistin sulfate [1]: less than 21.25%
- tvQ, typical value of inter-compartmental clearance, final model estimate [2, 6]: 1.63 L/h
- tvV2, typical value of volume of peripheral compartment distribution, final model estimate [2, 6]: 109 L
- tvV1, typical value of volume of central compartment distribution, final model estimate ([2]; 178 critically ill patients, 364 concentrations, intravenous, weight as covariate): 49.7 L
- dVdWT, exponential parameter coefficient of WT to V1, final model estimate ([2]; final PPK model): 1.2
- clearance ([2]; human, plasma, 178 critically ill patients, 364 concentrations, intravenous, CrCL as covariate, read-out: tvCL, typical value of central compartment clearance, final model estimate (converted)): 44.3 mL/min
- dCLdCrCL, bootstrap median [2, 7]: 0.466
- dVdWT, bootstrap median [2, 7]: 1.28
- tvCL, bootstrap median [2, 7]: 2.67 L/h
- tvQ, bootstrap median [2, 7]: 1.67 L/h
- tvV1, bootstrap median [2, 7]: 50.04 L
- tvV2, bootstrap median [2, 7]: 103.65 L
- 14-day mortality rate [3]: 27.53%
- Css.avg of colistin sulfate [4]: 1730 ± 980 ng/mL
- Acute kidney injury (nephrotoxicity) incidence [5]: 11.8%
